The results in this text go back to patent US20250243160A1, “INDOLE DERIVATIVES FOR TARGETING AUTOPHAGY” (Automera PTE. LTD, priority 2024, published 2025).

Molecules are shown by their SMILES. A value given as a limit tells only on which side of the number the result lay.

The target in one experiment is Recombinant p62 protein (Homo sapiens, UniProt Q13501). Kind of experiment: Surface plasmon resonance (SPR) compound binding to p62. As to conditions: 15° C. As to the method: Recombinant p62 protein was buffer exchanged into Biacore SPR running buffer (Cytiva 100671) using the Slide-A-Lyzer Mini Dialysis system 7K MWCO (Thermo Fisher Scientific, Cat no. 69560). The final protein concentration was determined using the Nanodrop One spectrophotometer (Thermo Fisher Scientific, cat no. ND-ONE-W), with calibration for the dialysis buffer.
Chain of Recombinant p62 protein (Q13501 whole entry, species assumed): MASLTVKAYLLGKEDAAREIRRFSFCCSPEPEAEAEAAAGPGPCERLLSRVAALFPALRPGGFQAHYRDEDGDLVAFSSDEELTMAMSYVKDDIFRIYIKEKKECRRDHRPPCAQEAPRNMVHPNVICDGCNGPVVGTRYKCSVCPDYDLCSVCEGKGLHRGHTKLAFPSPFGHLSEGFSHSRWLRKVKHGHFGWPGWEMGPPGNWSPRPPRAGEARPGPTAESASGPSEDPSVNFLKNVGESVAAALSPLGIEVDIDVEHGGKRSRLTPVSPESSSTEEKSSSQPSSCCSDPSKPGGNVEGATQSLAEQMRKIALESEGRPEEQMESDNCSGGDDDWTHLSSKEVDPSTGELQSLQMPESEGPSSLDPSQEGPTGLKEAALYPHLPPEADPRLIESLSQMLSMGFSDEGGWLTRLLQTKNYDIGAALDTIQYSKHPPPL
The prepared protein was diluted in sodium acetate buffer (NaAc, pH 5.5, Cytiva) to concentrations ranging from approximately 0.25-40 μg/mL. Post-immobilization, the protein required approximately 16 hours of equilibration in running buffer supplemented with 1% DMSO at 15° C. to ensure adequate surface equilibration and protein reorganization.
All SPR experiments were conducted at a constant temperature of 15° C. The SPR chip surface was activated using EDC/NHS for a contact time of 6-10 min at a flow rate of 10 μL/min. This was followed by protein immobilization for 2100 seconds and ethanolamine capping for 420 seconds, both at the same flow rate. Immediately after immobilization, the NH2-REEE peptide was analyzed in Single Cycle Kinetics mode (SCK) to verify surface activity, ensuring it binds the sample with the published affinity (˜20 μM by SPR).
For general compound binding studies, experiments were performed at 15° C. using a running buffer composed of 10 mM HEPES, 150 mM NaCl, 1 mM DTT, 0.05% Tween 20, and 1% DMSO at pH 7.4. The test compound was initially prepared at a 20 mM concentration in DMSO and subsequently titrated in 2-fold dilutions. For each assay, 2 μL of the compound was mixed with 198 μL of the running buffer, and the mixture was thoroughly pipetted approximately 15 times for homogenization.
A series of blank injections (0 μM concentration) were included for double referencing, with at least 8 or 16 per plate depending on the format. Typical injection parameters were 120 seconds for association and 180 seconds for dissociation at a flow rate of […]. A four-point solvent correction was prepared with DMSO concentrations ranging from 2% to 0.5% in the buffer. Post each compound injection, the system's needles were washed with 50% DMSO.
Analysis of the SPR data was conducted using the Cytiva Evaluation software. The binding levels at the late time-point of each interaction were corrected for reference, then normalized to percentage bound values to account for variations in immobilization levels, protein molecular weight, and compound molecular weight.
Compound binding studies were carried out according to experimental procedures above and SPR % occupancy was determined and summarized in Table 7.
As to `OCCNCc1cccc2c1ccn2Cc1cccc(Cl)c1` [Compound 13], the receptor occupancy at 100 µM was 30 to 70%.
Consider `OCCNCc1cccc2c1ccn2Cc1ccc(F)cc1` [Compound 10], for which the receptor occupancy at 100 µM is over 70%.
Same read-out and setting: the figure for `OCCNCc1cccc2c1ccn2Cc1ccc(Cl)cc1` [Compound 11] is over 70%.
As to `CC(C)(C)OC(=O)N1Cc2ccc(Cn3ccc4c(CNCCO)cccc43)cc2C1` [Compound 27], the receptor occupancy at 100 µM is over 70%.
Same read-out and setting: the figure for `OCCNCc1cccc2c1ccn2CCC1CCNCC1` [Compound 26] is 30 to 70%; for `OCCNCc1cccc2c1ccn2-c1ccccc1` [Compound 9, 2-(((1-phenyl-1H-indol-4-yl)methyl)amino)ethan-1-ol] it is over 70%.
On the same count and under the same terms, the figure for `CC(C)NCC(O)COc1cccc2c1ccn2Cc1ccccc1` (stereo not drawn) [Compound 6, 1-((1-benzyl-1H-indol-4-yl)oxy)-3-(isopropylamino)propan-2-ol] is 30 to 70%; for `OCCNCc1ccc(Cl)c2c1ccn2Cc1ccccc1` [Compound 35] it is over 70%.
Still for that read-out and setting: the figure for `Cc1cn(Cc2ccccc2)c2cccc(CNCCO)c12` [Compound 37, 2-(((1-benzyl-3-methyl-1H-indol-4-yl)methyl)amino)ethan-1-ol] is 30 to 70%.
Regarding `OCCNCc1cccc2c1ccn2Cc1c[nH]cn1` [Compound 21, 2-(((1-((1H-imidazol-4-yl)methyl)-1H-indol-4-yl)methyl)amino)ethan-1-ol], the receptor occupancy at 100 µM fell in the range of 30 to 70%.
Turning to `Cc1cn(Cc2ccc(F)cc2)c2cccc(CNCCO)c12` [Compound 48], the receptor occupancy at 100 µM was 30 to 70%.
The same measure, in the same setting: the figure for `OCCNCc1cc(F)cc2c1ccn2Cc1ccccc1` [Compound 31] is over 70%; for `Cc1cn(CC2CCOCC2)c2cccc(CNCCO)c12` [Compound 49] it is 30 to 70%.

The target of a further experiment is T1, p62 oligomers (Homo sapiens, UniProt Q13501).
T1 construct: endogenous in cells; host or cells: HeLa
T1 sequence (Q13501 whole entry): as the sequence (Q13501 whole entry, species assumed) above
Description: p62 oligomerization assay by Western blot in HeLa cells. As to conditions: 24 hours treatment, relative to vehicle control (DMSO). The class given is cell-based. On the procedure:
(§1) HeLa cells were seeded in 6-well plates (700,000 cells) and allowed to adhere overnight. Media was replaced one hour before administering either vehicle (DMSO) or test compounds. After 24 hours of treatment, the media was discarded, and cells were rinsed once with ice-cold 1×PBS before detached from plates with ice-cold RIPA Lysis and Extraction Buffer (Thermo Fisher Scientific) which was supplemented with protease and phosphatase inhibitors. The resulting cell suspensions were transferred to pre-chilled microcentrifuge tubes, incubated on ice for 20 min with intermittent mixing and then centrifuged at 12,000 rpm for 20 min at 4° C. The supernatants were then aspirated slowly and transferred into new tubes kept on ice. The protein concentration in the samples was determined using BCA kit (Thermo Fisher Scientific) as per manufacturer's instructions.
(§2) For the p62 oligomerization and LC3 lipidation assays, cell lysates were prepared using RIPA buffer supplemented with 2% SDS and benzonase (Sigma). The lysates were then combined with 4× Laemmli protein sample buffer (Bio-Rad), heated at 70° C. for 10 min and subjected to a brief centrifugation of 10-15 seconds.
(§3) For p62 oligomerization and LC3 lipidation assays, lysates containing 30 μg of protein and for BRD4 and FKBP12(F36V) degradation assays, lysates containing 20 μg of protein, were loaded slowly into the wells of 4-20% gradient Tris-glycine gels (Bio-Rad). The gels were run at 100V until completion and transferred onto PVDF membranes. Membranes were blocked using 5% milk in TBS-Tween (0.1%) buffer at room temperature for 1 hour. The membranes were incubated with primary antibody in 5% milk-TBST with shaking, overnight at 4° C. The primary antibodies used were: p62 (Novus Biologicals 2C11, H00008878-MO1), LC3A/B (Cell Signalling Technology D3U4C, 12741S), FKBP12 (Abcam ab24373), BRD4 (Cell Signalling Technology E2A7X, 13440S), GAPDH (Cell Signalling Technology D4C6R, 97166S), and β-Actin (Proteintech 66009-1-Ig). Following primary antibody incubation, membranes were washed thrice with TBST 10 min before and after incubation with secondary-HRP conjugated antibody in 5% milk-TBST for 1 hour at room temperature. The secondary antibodies used were: Anti-Mouse IgG HRP Conjugate (Promega W4021B) and Anti-Rabbit IgG HRP Conjugate (Promega W4011). For the p62 oligomerization assay, the total protein levels were assessed using Ponceau staining (Thermo Fisher Scientific) of PVDF membrane as per recommendation by manufacturer's guidelines.
(§4) Imaging was acquired using SuperSignal™ West Pico PLUS Chemiluminescent Substrate (Thermo Fisher Scientific) with iBright Invitrogen FL100 imaging system. Band signal intensity, reflective of protein concentrations, were quantified using Invitrogen™ iBright™ Analysis and Image J software.
HeLa cells were treated with compounds for 24 hours to evaluate the effect of these compounds on p62 oligomerisation activity. The resulting changes in levels of p62 oligomers were assessed by Western blotting, as described in experimental procedures. The fold change of p62 oligomer levels induced by compound treatment relative to vehicle control (DMSO) was determined and summarized in Table 8. Specifically, FIGS. 2A-C show Western blot images and their corresponding quantification showing the levels of high molecular weight (100-200 kDa) p62 oligomers by 24 hours compound treatments at listed concentrations, relative to vehicle control (DMSO) in HeLa cells. Protein loading consistencies was assessed by Ponceau staining (not shown).
Consider `OCCNCc1cccc2c1ccn2Cc1cccc(Cl)c1` [Compound 13], for which the “p62 oligomerization (fold change of p62 oligomer levels)” value is listed as “++ (>2-fold change relative to DMSO control)”.
As to `OCCNCc1cccc2c1ccn2Cc1ccc(F)cc1` [Compound 10], the “p62 oligomerization (fold change of p62 oligomer levels)” value was “++ (>2-fold change relative to DMSO control)”.
Still for that read-out and setting: then `OCCNCc1cccc2c1ccn2Cc1ccc(Cl)cc1` [Compound 11], with “++ (>2-fold change relative to DMSO control)”; and `CC(C)(C)OC(=O)N1Cc2ccc(Cn3ccc4c(CNCCO)cccc43)cc2C1` [Compound 27], with “++ (>2-fold change relative to DMSO control)”; and `OCCNCc1cccc2c1ccn2CCC1CCNCC1` [Compound 26], with “++ (>2-fold change relative to DMSO control)”.
The same measure, in the same setting: then `OCCNCc1cccc2c1ccn2-c1ccccc1` [Compound 9, 2-(((1-phenyl-1H-indol-4-yl)methyl)amino)ethan-1-ol], with “++ (>2-fold change relative to DMSO control)”; and `CC(C)NCC(O)COc1cccc2c1ccn2Cc1ccccc1` (stereo not drawn) [Compound 6, 1-((1-benzyl-1H-indol-4-yl)oxy)-3-(isopropylamino)propan-2-ol], with “++ (>2-fold change relative to DMSO control)”; and `OCCNCc1ccc(Cl)c2c1ccn2Cc1ccccc1` [Compound 35], with “++ (>2-fold change relative to DMSO control)”.
In the case of `Cc1cn(Cc2ccccc2)c2cccc(CNCCO)c12` [Compound 37, 2-(((1-benzyl-3-methyl-1H-indol-4-yl)methyl)amino)ethan-1-ol], the “p62 oligomerization (fold change of p62 oligomer levels)” value is “++ (>2-fold change relative to DMSO control)”.
Regarding `OCCNCc1cccc2c1ccn2Cc1c[nH]cn1` [Compound 21, 2-(((1-((1H-imidazol-4-yl)methyl)-1H-indol-4-yl)methyl)amino)ethan-1-ol], the “p62 oligomerization (fold change of p62 oligomer levels)” value was “+ (<2-fold change relative to DMSO control)”.
As to `Cc1cn(Cc2ccc(F)cc2)c2cccc(CNCCO)c12` [Compound 48], the “p62 oligomerization (fold change of p62 oligomer levels)” value was “++ (>2-fold change relative to DMSO control)”.
As for `OCCNCc1cc(F)cc2c1ccn2Cc1ccccc1` [Compound 31], the “p62 oligomerization (fold change of p62 oligomer levels)” value is reported as “++ (>2-fold change relative to DMSO control)”.
On the same count and under the same terms, the entry for `Cc1cn(CC2CCOCC2)c2cccc(CNCCO)c12` [Compound 49] is “+ (<2-fold change relative to DMSO control)”.

The subject of the next experiment is LC3 protein. Kind of experiment: LC3 lipidation (LC3-II/LC3-I) assay by Western blot in HeLa cells. The class given is cell-based. On the set-up: key: ++: >2-fold change in LC3-II/LC3-I relative to DMSO control; +: <2-fold change in LC3-II/LC3-I relative to DMSO control; −: no change in LC3-II/LC3-I relative to DMSO control. Conditions: 24 hours treatment, relative to vehicle control (DMSO). As to the method: as §1, §2, §3, §4
HeLa cells were treated with compounds for 24 hours to evaluate the effect of these compounds on LC3-II/LC3-I levels, a measure of autophagy activation. The changes in levels of LC3-I, LC3-II and […] (loading control) were assessed by Western blotting, as described in experimental procedures. The fold increase of LC3-II/LC3-I levels induced by compound treatment relative to vehicle control (DMSO) was determined and summarized in Table 9. Specifically, FIGS. 3A-C show Western blot images and their corresponding quantification showing the lipidation levels of LC3 protein (LC3-II/LC3-I) by 24 hours compound treatments at listed concentrations, relative to vehicle control (DMSO) in HeLa cells.
As to `OCCNCc1cccc2c1ccn2Cc1cccc(Cl)c1` [Compound 13], the “LC3 lipidation (fold increase of LC3-II/LC3-I levels)” value is “+ (<2-fold change in LC3-II/LC3-I relative to DMSO control)”.
The same measure, in the same setting: then `OCCNCc1cccc2c1ccn2Cc1ccc(F)cc1` [Compound 10], with “+ (<2-fold change in LC3-II/LC3-I relative to DMSO control)”.
The same measure, in the same setting: the entry for `OCCNCc1cccc2c1ccn2Cc1ccc(Cl)cc1` [Compound 11] is “++ (>2-fold change in LC3-II/LC3-I relative to DMSO control)”; for `CC(C)(C)OC(=O)N1Cc2ccc(Cn3ccc4c(CNCCO)cccc43)cc2C1` [Compound 27] it is “+ (<2-fold change in LC3-II/LC3-I relative to DMSO control)”; for `OCCNCc1cccc2c1ccn2CCC1CCNCC1` [Compound 26] it is “+ (<2-fold change in LC3-II/LC3-I relative to DMSO control)”.
Consider `OCCNCc1cccc2c1ccn2-c1ccccc1` [Compound 9, 2-(((1-phenyl-1H-indol-4-yl)methyl)amino)ethan-1-ol], for which the “LC3 lipidation (fold increase of LC3-II/LC3-I levels)” value is given as “+ (<2-fold change in LC3-II/LC3-I relative to DMSO control)”.
For `CC(C)NCC(O)COc1cccc2c1ccn2Cc1ccccc1` (stereo not drawn) [Compound 6, 1-((1-benzyl-1H-indol-4-yl)oxy)-3-(isopropylamino)propan-2-ol], the “LC3 lipidation (fold increase of LC3-II/LC3-I levels)” value is “+ (<2-fold change in LC3-II/LC3-I relative to DMSO control)”.
Same read-out and setting: the entry for `OCCNCc1ccc(Cl)c2c1ccn2Cc1ccccc1` [Compound 35] is “++ (>2-fold change in LC3-II/LC3-I relative to DMSO control)”; for `Cc1cn(Cc2ccccc2)c2cccc(CNCCO)c12` [Compound 37, 2-(((1-benzyl-3-methyl-1H-indol-4-yl)methyl)amino)ethan-1-ol] it is “+ (<2-fold change in LC3-II/LC3-I relative to DMSO control)”; for `OCCNCc1cccc2c1ccn2Cc1c[nH]cn1` [Compound 21, 2-(((1-((1H-imidazol-4-yl)methyl)-1H-indol-4-yl)methyl)amino)ethan-1-ol] it is “−”.
On the same count and under the same terms, the entry for `Cc1cn(Cc2ccc(F)cc2)c2cccc(CNCCO)c12` [Compound 48] is “++ (>2-fold change in LC3-II/LC3-I relative to DMSO control)”; for `OCCNCc1cc(F)cc2c1ccn2Cc1ccccc1` [Compound 31] it is “+ (<2-fold change in LC3-II/LC3-I relative to DMSO control)”; for `Cc1cn(CC2CCOCC2)c2cccc(CNCCO)c12` [Compound 49] it is “−”.
